Test results taken from US11642388B2, “Antidepressant compound preparation and preparation method thereof” (Chenland Nutritionals Inc., priority 2020, dated 2023).

How the values were obtained:
Format in all cases: in vivo
[1] = tested on: SPF grade male C57BL/6J mice; assay: Mouse tail suspension test; settings: 3.33 mg/kg by gavage daily for one month, last 4 minutes of 6 minutes, x ± SE
Description: (§1) 72 SPF grade male C57BL/6J mice which are 20±2 g in weight are selected. 6 mice are kept in each cage, free to forage and drink, and kept in a room with controlled light, temperature and humidity: the temperature is 21° C.±2° C., the humidity is 50%±10%, and the light and dark cycle is 12 hours/12 hours (light on at 20:00, light off at 8:00). All animal experiments are carried out in accordance with the guidelines on laboratory animal welfare and use issued by NIH.
(§2) After arrival, the mice are allowed to acclimate for one week before entering experiments.
(§3) The mice in the normal group are given the same volume of purified water by gavage, and the gavage doses for the mice in other groups are shown in the result tables. The mice are treated by gavage at a fixed time (9:00) every morning with a gavage volume of 0.1 mL·10 g^−1, and the administration is lasted for one month. A behavioral test is performed 1 hour after the last gavage.
In the tail suspension test, medical tape is used to suspend each mouse at ⅓ of the tail tip on a tail suspension device. The mice are suspended vertically with the heads facing camera lens, and are about 30 cm above the ground. The immobility time of each group of mice in the tail suspension test is recorded by a video camera for 6 minutes, and the tail suspension immobility time of the mice is calculated according to the last 4 minutes. […]

[2] = tested on: SPF grade male C57BL/6J mice; assay: Mouse forced swimming test (Embodiment 9); settings: 3.33 mg/kg by gavage daily for one month, 5 minutes formal test, x ± SE
Description: as §1, §2, §3
When forced to swim, all the animals are respectively put in a plexiglass cylinder with a water temperature of 23° C.±1° C. and a water depth of 20 cm. After 15 minutes, the animals are transferred to a dry environment with a temperature of 30° C. and kept for 30 minutes (pretest). After 24 hours, the mice are put into the plexiglass cylinder again and kept for 5 minutes (formal test). A video camera is used during the test for recording. […]

[3] = tested on: SPF grade male C57BL/6J mice; assay: Mouse open field test; settings: 3.33 mg/kg by gavage daily for one month; 6 minutes; x ± SE
Description: The test is performed in an open field box with a length of 50 cm, a width of 50 cm, and a depth of 50 cm. The bottom surface of the open field box is equally divided into 9 squares, the area right in the middle is a central area, and the remaining areas are peripheral areas. The bottom and four sides of the open field box are all white. The test is performed in a quiet and weak red light environment. […] The total movement distance of the mice, the movement distance in the central area and the number of standing-uprights are recorded.

CNCCC(Oc1ccc(C(F)(F)F)cc1)c1ccccc1 (stereo not drawn) [Fluoxetine, fluoxetine]
Tail suspension immobility time [1]: 59.62 ± 6.270 s | Tail suspension immobility time ([1]; listed as fluoxetine): significantly shorter | Number of floating immobilities [2]: 54.64 ± 2.704 | Number of floating immobilities ([2]; listed as fluoxetine): significantly lower | Number of standing-uprights [3]: 29.20 ± 2.133 | Total movement distance [3]: 18435 ± 950.6 mm
